Reference: patent US6495525B1, “VLA-4 inhibitor: oMePUPA-V” (Biogen, Inc., priority 1998, dated 2002)

Assays:
[1] = Proteolytic stability, in vitro metabolism and in vivo PK studies; format: in vitro ADME; settings: in vitro metabolism studies and in vivo PK studies in rat, dog and sheep
VLA-4 = VLA-4 (Homo sapiens, UniProt P05556+P13612); experiment: Purified VLA-4 Protein/Protein Assay with VCAM-Ig-AP; format: binding; design: endogenous in cells; host or cells: Jurkat (human T cell line)
Protocol: VLA-4 was purified from a detergent extract of a high expressing subclone of α4-transfected K562 cells by antibody affinity chromatography and immobilized on microtiter wells to establish a protein/protein competitive binding assay. VCAM-Ig-AP was bound to the purified VLA-4-coated plate in the absence or presence of oMePUPA-V (Lot #2) and 1 mM MnCl2. Plates were read at 405 nm and the data were analyzed using SoftMax v. 2.32 software.

[2] = test system: mouse contact hypersensitivity; experiment: DNFB contact hypersensitivity model, ear swelling; format: in vivo, mice; settings: 0.03 or 0.3 mg/kg enterally 4 hours after DNFB challenge, measured 24 hours after challenge
Protocol: Twenty gram female virus-free Balb/c mice (Jackson Laboratories, Bar Harbor, Me.) housed four to a cage in microisolator cages in Biogen's virus-free animal facility and receiving ad libitum mouse chow and tap water were used for all studies. Mice were anesthetized with ketamine:xylazine (90:10 mg/kg, i.p.). A 3 cm^2 patch of abdominal skin, xiphoid to pubis was exposed by closely shaving the far and the skin was scrubbed with 70% ethanol. A 25 μL volume of 0.5% DNFB in 4:1 v/v acetone:olive oil vehicle is uniformly applied to the bare abdominal skin. The skin was lightly scratched with the applying pipette tip to encourage mild inflammation. […] Twenty four hours after challenge, mice were again anesthetized with ketamine:xylazine and the ear thickness of both ears measured with an engineer's micrometer to an accuracy of 10^−4 inches.
Compounds (100 μL) or appropriate vehicle (Dimethylsulfoxide [DMSO] in isotonic phosphate buffered saline [PBS], 100 μL) were administered orally by gavage 4 hours after challenging the immune response on Day 5. […] The ear swelling response for each mouse was calculated as the difference between its vehicle- and DNFB-challenged ear thickness at 24 hours after challenge. […] Inhibition of the ear swelling response was determined by comparison of treated groups with their vehicle control group. […] Values are expressed as means ± standard error of the mean (SEM).

gpIIbIIIa = target: T1, gpIIbIIIa (Homo sapiens, UniProt P05106+P08514); experiment: Platelet aggregation induced by ADP in platelet rich plasma; format: cell-based
T1 construct: from tissue; host or cells: platelet rich plasma
Protocol: Activity against gpIIbIIIa was assessed by means of standard platelet aggregometry using platelet rich plasma. ADP was used to initiate aggregation in the presence of plasma where Ca^+2 and Mg^+2 are the major divalent cations. GRGDSP @ 100 ug/mL was used as a positive control.

T1 sequence (P08514 32-887 limits assumed): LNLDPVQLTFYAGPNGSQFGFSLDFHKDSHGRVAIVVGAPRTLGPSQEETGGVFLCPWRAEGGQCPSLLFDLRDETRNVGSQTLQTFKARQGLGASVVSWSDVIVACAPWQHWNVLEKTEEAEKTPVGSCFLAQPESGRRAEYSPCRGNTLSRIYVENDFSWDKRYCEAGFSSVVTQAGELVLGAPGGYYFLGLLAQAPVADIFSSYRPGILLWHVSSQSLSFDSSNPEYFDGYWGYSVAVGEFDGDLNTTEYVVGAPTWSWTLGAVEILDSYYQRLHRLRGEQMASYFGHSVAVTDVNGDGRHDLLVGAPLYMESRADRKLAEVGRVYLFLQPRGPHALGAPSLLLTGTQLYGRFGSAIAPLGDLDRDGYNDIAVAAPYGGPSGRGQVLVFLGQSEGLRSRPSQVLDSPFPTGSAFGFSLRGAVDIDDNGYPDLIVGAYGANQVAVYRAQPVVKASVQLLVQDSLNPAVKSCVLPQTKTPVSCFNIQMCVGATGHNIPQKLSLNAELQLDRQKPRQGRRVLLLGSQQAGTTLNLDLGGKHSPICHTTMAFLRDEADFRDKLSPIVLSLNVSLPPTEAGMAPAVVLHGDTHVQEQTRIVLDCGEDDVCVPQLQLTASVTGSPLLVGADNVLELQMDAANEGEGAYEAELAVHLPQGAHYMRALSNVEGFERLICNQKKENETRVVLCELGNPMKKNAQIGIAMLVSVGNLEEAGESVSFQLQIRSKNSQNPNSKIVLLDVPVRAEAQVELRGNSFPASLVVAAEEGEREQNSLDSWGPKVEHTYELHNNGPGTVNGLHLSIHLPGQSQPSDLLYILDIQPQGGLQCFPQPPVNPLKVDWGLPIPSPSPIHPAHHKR
T1 sequence (P08514 891-1039 partner limits assumed): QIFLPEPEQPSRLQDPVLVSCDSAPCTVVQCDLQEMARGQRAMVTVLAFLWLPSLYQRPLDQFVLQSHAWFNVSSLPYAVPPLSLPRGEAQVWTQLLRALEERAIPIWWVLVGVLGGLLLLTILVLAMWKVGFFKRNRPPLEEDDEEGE
T1 sequence (P05106 27-788): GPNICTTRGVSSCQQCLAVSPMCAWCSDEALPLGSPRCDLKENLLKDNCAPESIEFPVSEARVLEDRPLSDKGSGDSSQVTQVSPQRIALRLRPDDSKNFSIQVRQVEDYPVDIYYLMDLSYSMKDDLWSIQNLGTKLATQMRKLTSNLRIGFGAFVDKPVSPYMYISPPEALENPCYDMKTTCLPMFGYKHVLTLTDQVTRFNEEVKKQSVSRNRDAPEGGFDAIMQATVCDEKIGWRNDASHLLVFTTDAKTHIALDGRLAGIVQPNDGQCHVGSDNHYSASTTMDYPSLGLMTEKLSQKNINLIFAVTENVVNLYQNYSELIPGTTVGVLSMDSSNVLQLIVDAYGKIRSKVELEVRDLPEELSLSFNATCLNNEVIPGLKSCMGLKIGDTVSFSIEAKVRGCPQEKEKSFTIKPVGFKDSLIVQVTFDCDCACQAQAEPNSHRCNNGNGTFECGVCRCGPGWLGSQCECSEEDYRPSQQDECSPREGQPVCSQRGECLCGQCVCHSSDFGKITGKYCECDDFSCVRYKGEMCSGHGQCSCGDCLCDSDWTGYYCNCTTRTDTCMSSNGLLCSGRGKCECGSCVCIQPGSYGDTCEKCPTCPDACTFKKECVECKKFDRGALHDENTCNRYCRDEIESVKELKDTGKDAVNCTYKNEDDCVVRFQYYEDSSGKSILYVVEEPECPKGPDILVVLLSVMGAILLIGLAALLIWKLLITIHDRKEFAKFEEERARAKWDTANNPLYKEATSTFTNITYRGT
Sequence of VLA-4 (P13612 34-1032): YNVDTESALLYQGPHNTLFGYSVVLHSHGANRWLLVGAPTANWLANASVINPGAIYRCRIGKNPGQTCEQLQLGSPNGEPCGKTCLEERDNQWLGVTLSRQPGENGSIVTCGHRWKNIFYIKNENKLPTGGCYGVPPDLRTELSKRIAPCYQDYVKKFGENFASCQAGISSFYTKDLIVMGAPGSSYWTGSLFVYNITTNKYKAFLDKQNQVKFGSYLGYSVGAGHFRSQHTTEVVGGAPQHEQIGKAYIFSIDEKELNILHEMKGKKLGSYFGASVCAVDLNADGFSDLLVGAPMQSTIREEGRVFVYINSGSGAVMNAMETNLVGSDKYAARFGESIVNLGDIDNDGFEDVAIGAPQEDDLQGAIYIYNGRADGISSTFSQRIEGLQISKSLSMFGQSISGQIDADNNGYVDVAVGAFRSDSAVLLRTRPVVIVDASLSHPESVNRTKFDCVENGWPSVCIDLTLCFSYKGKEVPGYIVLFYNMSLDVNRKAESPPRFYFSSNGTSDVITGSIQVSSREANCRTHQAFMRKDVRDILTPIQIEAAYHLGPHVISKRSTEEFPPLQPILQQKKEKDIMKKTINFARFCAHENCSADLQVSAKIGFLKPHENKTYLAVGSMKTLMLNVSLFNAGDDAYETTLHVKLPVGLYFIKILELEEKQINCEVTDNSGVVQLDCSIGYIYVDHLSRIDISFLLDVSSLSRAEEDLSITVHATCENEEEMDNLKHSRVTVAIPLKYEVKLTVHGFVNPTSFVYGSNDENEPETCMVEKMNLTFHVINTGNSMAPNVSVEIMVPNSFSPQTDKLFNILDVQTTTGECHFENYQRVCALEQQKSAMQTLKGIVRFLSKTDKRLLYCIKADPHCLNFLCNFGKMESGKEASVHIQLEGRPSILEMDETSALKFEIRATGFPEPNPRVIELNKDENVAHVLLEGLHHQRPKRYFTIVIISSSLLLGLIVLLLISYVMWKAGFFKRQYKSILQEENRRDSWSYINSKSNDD
Sequence of VLA-4 (P05556 21-798): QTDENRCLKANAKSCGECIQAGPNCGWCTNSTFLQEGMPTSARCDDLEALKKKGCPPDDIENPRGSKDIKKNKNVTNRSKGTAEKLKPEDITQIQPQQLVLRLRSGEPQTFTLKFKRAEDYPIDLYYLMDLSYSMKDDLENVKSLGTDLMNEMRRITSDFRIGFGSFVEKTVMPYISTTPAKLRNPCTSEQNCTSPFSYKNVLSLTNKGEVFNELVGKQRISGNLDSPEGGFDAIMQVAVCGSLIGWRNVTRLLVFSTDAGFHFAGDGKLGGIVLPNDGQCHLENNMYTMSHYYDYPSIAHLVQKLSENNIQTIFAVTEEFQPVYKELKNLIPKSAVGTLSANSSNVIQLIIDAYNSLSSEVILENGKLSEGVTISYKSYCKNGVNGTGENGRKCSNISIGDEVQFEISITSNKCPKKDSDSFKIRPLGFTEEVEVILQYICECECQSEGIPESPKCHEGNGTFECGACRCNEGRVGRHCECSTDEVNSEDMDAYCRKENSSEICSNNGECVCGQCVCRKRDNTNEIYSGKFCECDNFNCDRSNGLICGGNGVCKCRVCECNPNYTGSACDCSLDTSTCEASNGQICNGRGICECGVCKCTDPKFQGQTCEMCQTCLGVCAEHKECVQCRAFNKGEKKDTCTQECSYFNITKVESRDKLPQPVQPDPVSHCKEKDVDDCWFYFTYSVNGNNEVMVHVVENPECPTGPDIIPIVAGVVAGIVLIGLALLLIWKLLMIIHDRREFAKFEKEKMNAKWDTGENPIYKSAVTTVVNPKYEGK

**Q.** With `Cc1ccccc1NC(=O)Nc1ccc(CC(=O)N2CCC[C@H]2C(=O)N[C@H](C)CC(=O)O)cc1` [oMePUPA-V] as the compound, how does the proteolytic stability [1] read?
**A.** The proteolytic stability was “proteolytically stable”.

**Q.** And the IC50 (VLA-4; 1 mM MnCl2, read-out: IC50, Purified VLA-4 VCAM-Ig binding)?
**A.** The IC50 was 0.1 nM.

**Q.** What about the “potency on isolated VLA-4 relative to Jurkat cells in the binding assay” value (VLA-4; in the presence of Mn+2) of the same compound?
**A.** The value was 80 fold.

**Q.** What about the “inhibition of ear swelling response (in words)” value [2] of the same compound?
**A.** Its value is “significantly inhibited”.

**Q.** And the “Ames test (mutagenicity)” value (Ames test (mutagenicity))?
**A.** The value was “clean”.

**Q.** What about the “measurable activity against gpIIbIIIa” value (gpIIbIIIa) of the same compound?
**A.** The value was greater than 100 µM.

**Q.** And the “inhibition, platelets (IIbIIIa) fibrinogen aggregation” value (gpIIbIIIa; @ 100 μM, Ca+2/Mg+2)?
**A.** Its value is “no inhibition @”.

**Q.** And the “inhibition of ADP-induced platelet aggregation (in words)” value (gpIIbIIIa; three doses 1, 10 and 100 μM)?
**A.** Its value is “did not inhibit”.
